Measured values taken from ChEMBL document CHEMBL6071195, “Oxime Linked Doxorubicin Glycoconjugates Improve the Specific Targeting of Glioblastoma in High-Grade Glioma Therapy” (ACS Med Chem Lett, 2024).
Active and inactive are the calls of the source. No cut-off for these calls is given here.

Assays:
[1] = test system: DNA; experiment: Binding affinity to DNA (unknown origin) assessed as intercalative binding constant (Ka) by UV-Vis absorption spectra; assay type: nucleic-acid assay
[2] = test system: DNA; experiment: Binding affinity to DNA (unknown origin) assessed as Stem-Volmer quenching constant by fluorescence spectral analysis; assay type: nucleic-acid assay
[3] = test system: T98G; experiment: Cytotoxicity against human T98G cells assessed as cell viability at 10 uM incubated for 24 hrs by MTT assay relative to control; assay type: functional
[4] = test system: A 172; experiment: Cytotoxicity against human A-172 cells assessed as reduction in cell viability at 10 uM incubated for 24 to 48 hrs by MTT assay; assay type: functional, cell-based; settings: time 24-48 hrs
[5] = Cytotoxicity against human SVG p12 cells assessed as reduction in cell viability at 10 uM incubated for 24 to 48 hrs by MTT assay; assay type: toxicity, cell-based; settings: svg p12, 10 µM, time 24-48 hrs
[6] = test system: A 172; experiment: Induction of DNA damage in human A-172 cells at 10 uM incubated for 24 hrs by TUNEL assay; assay type: functional, cell-based
[7] = test system: A 172; experiment: Induction of apoptosis in human A-172 cells assessed as apoptotic rate at 10 uM incubated for 24 hrs by TUNEL assay relative to control; assay type: functional
[8] = test system: T98G; experiment: Induction of DNA damage in human T98G cells at 10 uM incubated for 24 hrs by TUNEL assay; assay type: functional, cell-based
[9] = test system: T98G; experiment: Induction of apoptosis in human T98G cells assessed as apoptotic rate at 10 uM incubated for 24 hrs by TUNEL assay relative to control; assay type: functional
[10] = test system: A 172; experiment: Cytotoxicity against human A-172 cells co-cultured with MDCK-II cells transfected with human P-gp assessed as cell viability at 100 uM pretreated for 2 hrs followed by […] cell removal and measured after 48 hrs by MTT assay relative to control; assay type: functional; settings: time 50 hrs, read-out: Activity
[11] = Cytotoxicity against human T98G cells co-cultured with MDCK-II cells transfected with human P-gp assessed as cell viability at 100 uM pretreated for 2 hrs followed by […] cell removal and measured after 48 hrs by MTT assay relative to control; assay type: functional; settings: time 50 hrs, read-out: Activity
[12] = test system: A 172; experiment: Cytotoxicity against human A-172 cells assessed as reduction in cell viability at 10 uM glucose deprived for 8 hrs followed by compound addition and measured after 24 to 48 hrs by MTT assay relative to control; assay type: functional, cell-based; settings: time 24-48 hrs
[13] = test system: T98G; experiment: Cytotoxicity against human T98G cells assessed as reduction in cell viability at 10 uM glucose deprived for 8 hrs followed by compound addition and measured after 24 hrs by MTT assay relative to control; assay type: functional, cell-based
[14] = test system: T98G; experiment: Cytotoxicity against human T98G cells assessed as reduction in cell viability at 10 uM glucose deprived for 8 hrs followed by compound addition and measured after 48 hrs by MTT assay relative to control; assay type: functional, cell-based
[15] = Drug uptake in human A-172 cells at 10 uM incubated for 8 hrs by DAPI staining based immunofluorescence analysis; assay type: ADME, cell-based; settings: a 172, 8 h
[16] = Drug uptake in human T98G cells at 10 uM incubated for 8 hrs by DAPI staining based immunofluorescence analysis; assay type: ADME, cell-based
[17] = Drug uptake in human SVG p12 cells at 10 uM incubated for 8 hrs by DAPI staining based immunofluorescence analysis; assay type: ADME, cell-based; settings: svg p12, 8 h
[18] = Stability of compound at pH 5.0 incubated for 72 hrs by HPLC analysis; assay type: physicochemical; settings: buffer, pH 5, 72 h
[19] = Stability of compound at pH 7.4 incubated for 72 hrs by HPLC analysis; assay type: physicochemical; settings: buffer, pH 7.4, 72 h
[20] = Stability of compound at pH 3.5 incubated for 72 hrs by HPLC analysis; assay type: physicochemical; settings: buffer, pH 3.5, 72 h
[21] = Stability of compound at pH 2 measured after 24 hrs by HPLC analysis; assay type: physicochemical; settings: buffer, pH 2, 24 h
[22] = Stability of compound at pH 2 assessed as drug hydrolysis measured after 72 hrs by HPLC analysis; assay type: physicochemical; settings: buffer, read-out: Drug degradation
[23] = Stability of compound in T98G GBM cell culture media at pH 6.8 measured after 72 hrs by HPLC analysis; assay type: physicochemical; settings: pH 6.8, 72 h
[24] = test system: DNA; experiment: Binding affinity to DNA (unknown origin) assessed as intercalation by measuring hypsochromic shift at 100 uM by UV-Vis absorption spectra; assay type: nucleic-acid assay
[25] = test system: T98G; experiment: Cytotoxicity against human T98G cells assessed as reduction in cell viability at 10 uM incubated for 48 hrs by MTT assay; assay type: functional, cell-based
[26] = Drug uptake in human A-172 cells assessed as red appearance incubated for 24 hrs by imaging analysis; assay type: ADME, cell-based; settings: a 172, 24 h
[27] = Drug uptake in human T98G cells assessed as red appearance incubated for 24 hrs by imaging analysis; assay type: ADME, cell-based

| K [1] | KSV [2] | Drug uptake [15] | Drug uptake [16] | Drug uptake [17] | Stability [18] | Stability [19] | Stability [20] | Stability [21] | SMILES | Activity [4] | Activity [5] | Activity [6] | Activity [7] [%] | Activity [8] | Activity [9] | viability at 100 µM [10] [%] | viability at 100 µM [11] [%] | Activity [12] | Activity [13] | Activity [14] | also measured |
| --- | --- | --- | --- | --- | --- | --- | --- | --- | --- | --- | --- | --- | --- | --- | --- | --- | --- | --- | --- | --- | --- |
| 3.3 10^5/M | 3.1 10^5/M | Active | Active | Active | – | – | – | – | COc1cccc2c1C(=O)c1c(O)c3c(c(O)c1C2=O)C[C@@](O)(C(=O)CO)C[C@@H]3O[C@H]1C[C@H](N)[C@H](O)[C@H](C)O1 [DOXORUBICIN] | Active | Toxic | Active | 102 | Active | 122% | 94 | 73 | Active | inactive | Active | Activity [3]: inactive |
| 2.7 10^5/M | 3.5 10^5/M | Active | Active | Active | Stable | Stable | Stable | Unstable | COc1cccc2c1C(=O)c1c(O)c3c(c(O)c1C2=O)C[C@@](O)(/C(CO)=N\OCC(=O)NCc1cn(C[C@H]2O[C@H](OC)[C@H](O)[C@@H](O)[C@@H]2O)nn1)C[C@@H]3O[C@H]1C[C@H](N)[C@H](O)[C@H](C)O1 | Active | Non-Toxic | Active | 202 | Active | 116% | 58 | 62 | Active | inactive | Active | degraded at 72 h [22]: 49%; Stability [23]: Stable; Activity [24]: Active; viability at 10 µM ([3]; read-out: Activity): 80%; Activity [25]: Active; Drug uptake [26]: Active; Drug uptake [27]: Active |
| 3.5 10^5/M | 4.4 10^5/M | Not Active | Not Active | Not Active | Stable | Stable | Stable | Unstable | COc1cccc2c1C(=O)c1c(O)c3c(c(O)c1C2=O)C[C@@](O)(/C(CO)=N\OCC(=O)NC[C@H]1O[C@H](OC)[C@H](O)[C@@H](O)[C@@H]1O)C[C@@H]3O[C@H]1C[C@H](N)[C@H](O)[C@H](C)O1 | Active | – | – | 32 | inactive | inactive | 129 | 76 | Active | inactive | inactive | degraded at 72 h [22]: 46%; Stability [23]: Stable; Activity [24]: Active; Drug uptake [26]: Not Active; Drug uptake [27]: Not Active |
